In PMC9828099, “Aromatic disulfides as potential inhibitors against interaction between deaminase APOBEC3G and HIV infectivity factor” (Acta Biochimica et Biophysica Sinica, 2022):

What was measured:
[1] = target: full-length APOBEC3G (A3G-FL) (UniProt Q9HC16); experiment: SPR
HIV-1 = conditions: MT4 and MAGI cells; cited from earlier work
[2] = test system: interaction between A3G and Vif; parameters: method as in PMID 25724652; conditions: read-out: IC50, block of interaction between A3G and Vif; cited from earlier work
Vif = conditions: fluorescent intensity of 293T cells; read-out: IC50, inhibition of Vif activity; cited from earlier work
rVif = target: T1, rVif (Human immunodeficiency virus type 1 group M subtype B, UniProt P12504); assay type: binding, HIV-1; conditions: SPR 1st round screening, small molecules at 500 μM
T1 construct: The cDNAs of full-length Vif (residues 1–192) was sub-cloned into the vector pET28a; made in house
Protocol: (§1) Small molecules in the concentration of 500 μM were injected at 30 μL/min. The contact time is 100 s and dissociation time is 120 s. The chip was regenerated by glycine (pH 1.5) at a flow rate of 30 μL/min (30 s contact time). Then small molecules with high RU were selected to perform the 2 ^nd round screening. […] The data analyses were performed by BIAcore Evaluation.

A3G-sNTD = target: T2, A3G-sNTD (Homo sapiens, UniProt Q9HC16); experiment: SPR binding of small molecules to A3G-sNTD; conditions: read-out: KD, binding affinity to A3G-sNTD
T2 sequence (Q9HC16 1-196): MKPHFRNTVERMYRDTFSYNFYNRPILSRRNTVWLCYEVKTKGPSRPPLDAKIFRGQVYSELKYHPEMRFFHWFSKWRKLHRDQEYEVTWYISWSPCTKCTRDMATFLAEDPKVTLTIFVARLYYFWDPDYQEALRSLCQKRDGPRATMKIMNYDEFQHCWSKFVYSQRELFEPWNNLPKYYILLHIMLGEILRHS
Protocol: as §1

T1 sequence (P12504 whole entry, the tested form may be a part): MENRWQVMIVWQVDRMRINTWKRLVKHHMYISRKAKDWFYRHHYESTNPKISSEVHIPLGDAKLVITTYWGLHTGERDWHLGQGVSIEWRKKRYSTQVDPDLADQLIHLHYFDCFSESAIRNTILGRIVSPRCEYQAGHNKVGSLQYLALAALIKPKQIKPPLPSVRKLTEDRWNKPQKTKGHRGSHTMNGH

Molecule: Vif-CBFβ-ELOB-ELOC (VCBC) complex (from UniProt P12504;Q13951;Q15370;Q15369)
- Kd [1]: 0.00071 µM

Molecule: O=C(O)Cn1c2c(c3c1=C(c1ccc(O)c(O)c1)C(=O)c1cc(O)c(OS(=O)(=O)O)cc1-3)-c1cc(O)c(O)cc1C(=O)C=2c1ccc(O)c(O)c1 [Baculiferin M]
- IC50, HIV-1 replication (HIV-1): 0.5 to 7 µg/mL

Molecule: O=C(O)Cn1c2c(c3c1=C(c1ccc(O)c(O)c1)C(=O)c1cc(O)c(O)cc1-3)-c1cc(O)c(O)cc1C(=O)C=2c1ccc(O)c(O)c1 [Baculiferin L]
- IC50, HIV-1 replication (HIV-1): 0.5 to 7 µg/mL

Molecule: C/C(=C/C(=O)c1cccnc1)Nc1ccc(O)cc1 [N.41]
- IC50 [2]: 2.18 µM

Molecule: COc1ccccc1NC(=O)c1ccccc1Sc1ccc([N+](=O)[O-])cc1 [RN-18]
- IC50 (Vif): 4.5 µM

Molecule: CCCCn1c(SCc2c(C)noc2C)nc2cc(S(N)(=O)=O)ccc21 [MM-2]
- relative response value of binding to rVif (rVif): 130.4 RU
- Kd (A3G-sNTD): 19.9 ± 11 µM
